In patent US20250353853A1, “FLAVIVIRUS INHIBITORS” (IRBM S.P.A., priority 2022, published 2025):
Structures can show the parent of a compound that is named as a salt.

Tested on: ZIKV replicon in Vero cells
Experiment: ZIKV Replication Inhibition Assay (replicon, NanoLuc)
Conditions: Zika virus, Vero, 72 h, read-out: Zika Replicon EC50

Compound	EC50 [µM]
O=C([N-]c1c[n+](C2(c3ccccc3)CC2)no1)Nc1cccc(C(F)(F)F)c1 [Example 25, (3-(1-phenylcyclopropyl)-1,2,3-oxadiazol-3-ium-5-yl)((3-(trifluoromethyl)phenyl)carbamoyl)amide]	1 to 20
CC(c1ccccc1)[n+]1cc([N-]C(=O)Nc2cccc(C(F)(F)F)c2)on1 (centres unmarked) [Example 38, (3-(1-phenylethyl)-1,2,3-oxadiazol-3-ium-5-yl)((3-(trifluoromethyl)phenyl)carbamoyl)amide]	1 to 20
Cc1noc(C)c1-c1ccc(C[n+]2cc([N-]C(=O)Nc3cccc(C(F)(F)F)c3)on2)cc1 [Example 78, (3-(4-(3,5-dimethylisoxazol-4-yl)benzyl)-1,2,3-oxadiazol-3-ium-5-yl)((3-(trifluoromethyl)phenyl)carbamoyl)amide]	< 0.1
O=C([N-]c1c[n+](Cc2ccccc2)no1)Nc1cccc(C(F)(F)F)c1 [Example 6, (3-Benzyl-1,2,3-oxadiazol-3-ium-5-yl)((3-(trifluoromethyl)phenyl)carbamoyl) amide]	1 to 20
COc1ncncc1-c1cccc(C[n+]2cc([N-]C(=O)Nc3cccc(C(F)(F)F)c3)on2)c1 [Example 84, (3-(3-(4-methoxypyrimidin-5-yl)benzyl)-1,2,3-oxadiazol-3-ium-5-yl)((3-(trifluoromethyl)phenyl)carbamoyl)amide]	0.1 to 1
O=C([N-]c1c[n+](Cc2csc(-c3cncnc3)c2)no1)Nc1cccc(C(F)(F)F)c1 [Example 100, (3-((5-(pyrimidin-5-yl)thiophen-3-yl)methyl)-1,2,3-oxadiazol-3-ium-5-yl)((3-(trifluoromethyl)phenyl)carbamoyl)amide]	0.1 to 1
O=C([N-]c1c[n+](Cc2ccc(-c3cnn4c3CNCC4)cn2)no1)Nc1cccc(C(F)(F)F)c1 [Example 124, (3-((5-(4,5,6,7-tetrahydropyrazolo[1,5-a]pyrazin-3-yl)pyridin-2-yl)methyl)-1,2,3-oxadiazol-3-ium-5-yl)((3-(trifluoromethyl)phenyl)carbamoyl)amide]	0.1 to 1
Cc1ncn(C)c1-c1ccc(C[n+]2cc([N-]C(=O)Nc3cccc(C(F)(F)F)c3)on2)cc1 [Example 98, (3-(4-(1,4-dimethyl-1H-imidazol-5-yl)benzyl)-1,2,3-oxadiazol-3-ium-5-yl)((3-(trifluoromethyl)phenyl)carbamoyl)amide]	0.1 to 1
Cc1nc(OCCN(C)C)ncc1-c1ccc(C[n+]2cc([N-]C(=O)Nc3cccc(C(F)(F)F)c3)on2)nc1 [Example 43, (3-((5-(2-(2-(dimethylamino)ethoxy)-4-methylpyrimidin-5-yl)pyridin-2-yl)methyl)-1,2,3-oxadiazol-3-ium-5-yl)((3-(trifluoromethyl)phenyl)carbamoyl)amide]	0.1 to 1
CC(Cc1ccc(Cl)c(Cl)c1)[n+]1cc([N-]C(=O)Nc2cccc(C(F)(F)F)c2)on1 (centres unmarked) [Example 9, (3-(1-(3,4-dichlorophenyl)propan-2-yl)-1,2,3-oxadiazol-3-ium-5-yl)((3-(trifluoromethyl)phenyl)carbamoyl)amide]	1 to 20
COc1ncc(-c2ccc(C[n+]3cc([N-]C(=O)Nc4cccc(C#N)c4)on3)cc2)c(C)n1 [Example 114, ((3-cyanophenyl)carbamoyl)(3-(4-(2-methoxy-4-methylpyrimidin-5-yl)benzyl)-1,2,3-oxadiazol-3-ium-5-yl)amide]	1 to 20
Cc1nccnc1-c1ccc(C[n+]2cc([N-]C(=O)Nc3cccc(C(F)(F)F)c3)on2)cc1 [Example 86, (3-(4-(3-methylpyrazin-2-yl)benzyl)-1,2,3-oxadiazol-3-ium-5-yl)((3-(trifluoromethyl)phenyl)carbamoyl)amide]	0.1 to 1
NC[C@H](Cc1ccc(-c2ccccc2)cc1)[n+]1cc([N-]C(=O)Nc2cccc(C(F)(F)F)c2)on1 [Example 65, (S)-(3-(1-([1,1′-biphenyl]-4-yl)-3-aminopropan-2-yl)-1,2,3-oxadiazol-3-ium-5-yl)((3-(trifluoromethyl)phenyl)carbamoyl)amide formate]	1 to 20
Cc1noc(C)c1-c1ccc([C@@H](CN)[n+]2cc([N-]C(=O)Nc3cccc(C(F)(F)F)c3)on2)cc1 [Example 116, (S)-(3-(2-amino-1-(4-(3,5-dimethylisoxazol-4-yl)phenyl)ethyl)-1,2,3-oxadiazol-3-ium-5-yl)((3-(trifluoromethyl)phenyl)carbamoyl)amide formate]	0.1 to 1
Cc1ncnc(OCCN(C)C)c1-c1ccc(C[n+]2cc([N-]C(=O)Nc3cccc(C(F)(F)F)c3)on2)nc1 [Example 123, ((3-((5-(4-(2-(metheyliumyl(methyl)ammonio)ethoxy)-6-methylpyrimidin-5-yl)pyridin-2-yl)methyl)-1,2,3-oxadiazol-3-ium-5-yl)((3-(trifluoromethyl)phenyl)carbamoyl)amide) (2,2,2-trifluoroacetate)]	0.1 to 1
O=C([N-]c1c[n+](CCc2ccccc2)no1)Nc1cccc(C(F)(F)F)c1 [Example 5, (3-phenethyl-1,2,3-oxadiazol-3-ium-5-yl)((3-(trifluoromethyl)phenyl)carbamoyl)amide]	0.1 to 1
Cc1ccccc1-c1ccc(C[n+]2cc([N-]C(=O)Nc3cccc(C(F)(F)F)c3)on2)cc1 [Example 21, (3-((2′-methyl-[1,1′-biphenyl]-4-yl)methyl)-1,2,3-oxadiazol-3-ium-5-yl)((3-(trifluoromethyl)phenyl)carbamoyl)amide]	0.1 to 1
O=C([N-]c1c[n+](Cc2ccc(-c3cncnc3C(F)(F)F)cc2)no1)Nc1cccc(C(F)(F)F)c1 [Example 80, ((3-(trifluoromethyl)phenyl)carbamoyl)(3-(4-(4-(trifluoromethyl)pyrimidin-5-yl)benzyl)-1,2,3-oxadiazol-3-ium-5-yl)amide]	< 0.1
Cc1cc(C[n+]2cc([N-]C(=O)Nc3cccc(C(F)(F)F)c3)on2)ccc1-c1cncnc1C [Example 101, (3-(3-methyl-4-(4-methylpyrimidin-5-yl)benzyl)-1,2,3-oxadiazol-3-ium-5-yl)((3-(trifluoromethyl)phenyl)carbamoyl)amide]	< 0.1
COc1ncc(-c2ccc(C[n+]3cc([N-]C(=O)Nc4cccc(Cl)c4)on3)cc2)c(C)n1 [Example 113, ((3-chlorophenyl)carbamoyl)(3-(4-(2-methoxy-4-methylpyrimidin-5-yl)benzyl)-1,2,3-oxadiazol-3-ium-5-yl)amide]	0.1 to 1
CC(=O)NC[C@@H](Cc1ccc(-c2ccccc2)cc1)[n+]1cc([N-]C(=O)Nc2cccc(C(F)(F)F)c2)on1 [Example 71, (R)-(3-(1-([1,1′-biphenyl]-4-yl)-3-acetamidopropan-2-yl)-1,2,3-oxadiazol-3-ium-5-yl)((3-(trifluoromethyl)phenyl)carbamoyl)amide]	> 20
Cc1ncncc1-c1ccc([C@H](C)[n+]2cc([N-]C(=O)Nc3cccc(C(F)(F)F)c3)on2)cc1 [Example 79, (S)-(3-(1-(4-(4-methylpyrimidin-5-yl)phenyl)ethyl)-1,2,3-oxadiazol-3-ium-5-yl)((3-(trifluoromethyl)phenyl)carbamoyl)amide]	< 0.1
CC(Cc1ccccc1)[n+]1cc([N-]C(=O)Nc2cc(F)cc(C(F)(F)F)c2)on1 (centres unmarked) [Example 11, ((3-fluoro-5-(trifluoromethyl)phenyl)carbamoyl)(3-(1-phenylpropan-2-yl)-1,2,3-oxadiazol-3-ium-5-yl)amide]	> 20
